How the values were obtained:
[1] = system: KPC mice with pancreatic ductal adenocarcinoma; assay: KPC mouse PDA study; assay type: in vivo; conditions: Cal alone
Procedure: KPC mice with pancreatic ductal adenocarcinoma were used based on tumor size, as described previously (Olive et al., 2009). In this study, enrollment was restricted to mice with tumors of a mean diameter between 6 and 9 mm, as determined by high resolution ultrasound imaging. Suitable mice were assigned to a treatment group: gemcitabine; calcipotriol; or gemcitabine and calcipotriol combination. Gemcitabine was administered as a saline solution at 100 mg/kg by intraperitoneal injection, once every three days; when appropriate, a final dose was given two hours prior to euthanasia. Calcipotriol was administered as a saline solution daily at 60 μg/kg by intraperitoneal injection. […]
LC-MS/MS was performed as described by Bapiro et al. (Bapiro et al., 2011). […] Analytes were separated using a gradient of acetonitrile in 10 mM ammonium acetate, pH 10 and detected using a Thermo LTQ-XL mass spectrometer (Thermo Fisher Scientific). Drugs recoveries were normalized using the internal standards and quantified using calibration standards generated from untreated tissue homogenates as described (Bapiro et al., 2011).
Tumors harvested from treated KPC mice were immediately fixed in buffered formalin. […] CD31-positive area was quantified in each section using Nuance software. […] Total tumor cells were quantified per field, as well as total and percent CC3-positive tumor cells per field. […]

wild type mice = assay: Cerulein-induced acute pancreatitis model; assay type: in vivo, mouse; conditions: cerulein with daily 40 μg/kg calcipotriol
Procedure: Tissues were embedded in O.C.T. and frozen sections were fixed in ice-cold methanol at −20° C. for 20 min. Sections were blocked in PBS+0.2% BSA+0.05% Triton X-100 (blocking solution) for 1 h at room temperature. Primary antibody dilutions in blocking solution were as follows: anti-phospho-STAT3(Tyr705), 1:100 (Cell Signaling Technology); anti-Collagen I, 1:500 (Abcam), anti-GFAP, 1:100 (Abcam); anti-CD45, 1:100 (BD Pharmingen). Primary antibody incubations were performed in a humidified chamber at 4° C. overnight. Sections were washed 3 times with PBS+0.05% Triton X-100, then incubated in secondary antibodies for 1 h at room temperature, protected from light. Secondary antibodies used included Alexa Fluor 594 goat anti-rabbit IgG, Alexa Fluor 488 goat anti-rabbit IgG, Alexa Fluor 594 goat anti-rat IgG, and Alexa Fluor 488 goat anti-mouse IgG (Molecular Probes) and were used at 1:250 in blocking solution. […] Fluorescence was visualized on a Leica DM5000B fluorescent microscope and quantified using ImageJ. […] Cerulein injections were administered as 6 hourly injections 2 times per week for 12 weeks and analyzed 1 week after final cerulein injection, adapted from previous studies (Sah et al., 2013; Treiber et al., 2011; Yoo et al., 2005). […] Images were obtained and quantification of Sirius Red-positive area performed using Nuance 3.0.1.2 software. […]

## C=C1/C(=C\C=C2/CCC[C@]3(C)[C@@H]([C@H](C)/C=C/[C@@H](O)C4CC4)CC[C@@H]23)C[C@@H](O)C[C@@H]1O [Cal, 1α,24-(OH)2-24-cyclopropyl-D3]
[1]
  efficacy as a single agent: no measurable beneficial effects
Wild type mice
  activation-associated changes in PSC gene expression: impaired activation-associated changes in PSC gene expression
  leukocyte infiltration and fibrosis: reduced leukocyte infiltration and fibrosis

Source: patent US9895381B2, “Vitamin D receptor agonists to treat diseases involving CXCL12 activity” (Salk Institute for Biological Studies, priority 2013, dated 2018)
